Experiment in all cases: DTP human tumour cell line panel, 48 h
Assay [1] deals with MOLT-4 leukemia.
The subject of assay [2] is HOP-62 NSCLC.
The subject of assay [3] is MDA-MB-231 breast.
Assay [4] concerns HCC-2998 colon.
Assay [5] deals with NCI/ADR-RES ovarian.
Assay [6] relates to COLO 205 colon.
Assay [7] deals with NCI-H522 lung.
The subject of assay [8] is SF-295 CNS.
In assay [9] the test system is UACC-62 melanoma.
The subject of assay [10] is MCF7 breast.
Assay [11] relates to EKVX NSCLC.
In assay [12] the test system is NCI-H23 lung.
Assay [13] deals with OVCAR-3 ovarian.
In assay [14] the test system is HCT-15 colon.
Assay [15] concerns SK-MEL-5 melanoma.
The test system of assay [16] is SF-268 CNS.

Structures are written as SMILES.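 Cells were grown in 96-well plates and exposed to each compound for 48 hours at five concentrations; endpoints were interpolated linearly between bracketing concentrations, or set to the highest concentration if not reached. TGI marks complete inhibition of growth.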 A value given as a limit tells only on which side of the number the result lay.

As a reminder, the TGI is the concentration at which net growth stops. High values mean less potent growth arrest, low ones more potent growth arrest. For the compound `CSCCCNC(=O)c1csc(-c2csc(CCNC(=O)CNC(=O)OC(C)(C)C)n2)n1`, the TGI in [1], in assay [2], in [3], in assay [4], in assay [5] and in [6] was > 100 µM each time. Besides, the TGI in [7], in [8], in [9], in assay [10], in assay [11] and in [12] was > 100 µM throughout. Moreover, the TGI in assay [13], in assay [14], in [15] and in assay [16] was > 100 µM each time.
`CCOP(=O)(OCC)/C(C#N)=C/c1cccn1C`: the TGI in assay [1], in assay [2], in assay [3], in assay [4], in assay [5] and in assay [6] was > 100 µM each time. In addition, the TGI in [7], in assay [8], in assay [9], in assay [10], in [11] and in assay [12] was > 100 µM in each case. Moreover, the TGI in assay [13], in assay [14], in [15] and in assay [16] was > 100 µM throughout.
As to `CC1=NN(c2ccccc2Cl)C2(C1)C(Cl)C(=O)N2c1nc2ccccc2s1` (stereo not given), the TGI is 91.6 µM in assay [1]; > 100 µM in assay [2]; > 100 µM in assay [3]; > 100 µM in [4]; > 100 µM in [5]; > 100 µM in assay [6]. The TGI in assay [7] is 35 µM; in assay [8], > 100 µM; in [9], > 100 µM; in [10], > 100 µM; in [11] it was > 100 µM; in [12] it was > 100 µM. The TGI was 53.1 µM in assay [13], > 100 µM in assay [14], > 100 µM in [15] and > 100 µM in [16].
For `COC(=O)c1c(C)c2c(c(C)c1O)OC(=O)c1c(C)cc(O)c(C=O)c1O2`, the TGI in [1], in assay [2], in assay [3], in assay [4], in assay [5] and in [6] was > 100 µM throughout. In addition, the TGI in [7], in assay [8], in assay [9], in assay [10], in assay [11] and in [12] was > 100 µM in each case. The TGI in assay [13], in assay [14], in assay [15] and in assay [16] was > 100 µM each time.
With `CCC(=O)NC(NNS(=O)(=O)c1ccc(C)cc1)(C(F)(F)F)C(F)(F)F`, the TGI in assay [1] is > 100 µM; in assay [2] it was > 100 µM; in assay [3], > 100 µM; in assay [4], > 10 µM; in [5], 85.2 µM; in assay [6], > 100 µM. The TGI in assay [7] was 62.4 µM; in assay [8], > 100 µM; in [9], > 100 µM; in assay [10] it was > 100 µM; in [11], > 100 µM; in assay [12], > 100 µM. In addition, the total growth inhibition concentration (TGI) is > 10 µM in assay [13], > 100 µM in [14], > 100 µM in assay [15] and > 100 µM in assay [16].
Take `O=C1/C(=C/c2ccc([N+](=O)[O-])cc2)Oc2cc(O)ccc21`: the TGI in assay [1] is 44.4 µM; in [2] it was > 100 µM; in assay [3] it was 73.9 µM; in [4] it was > 100 µM; in assay [5] it was 88.3 µM; in [7], 65.6 µM. Further, the TGI in assay [8] was > 100 µM; in assay [9], > 100 µM; in assay [10], > 100 µM; in assay [11], 96.3 µM; in [12], > 100 µM; in assay [13], 73.8 µM. Besides, the values for the TGI in assay [14], in assay [15] and in assay [16] were 69.1 µM, 48 µM and > 100 µM, respectively.
Consider `CN(C)Cc1cc(C(=O)/C=C/c2ccc(Cl)cc2Cl)cc(CN(C)C)c1O`, for which the TGI in assay [1] turned out to be 4.71 µM; in [2] it was 12.9 µM; in assay [3], 6.53 µM; in [4] it was 20.2 µM; in assay [5], 5.7 µM; in assay [6] it was 2.76 µM. In addition, the TGI came to 7.29 µM in assay [7]; 14 µM in [8]; 15.3 µM in [10]; 19.7 µM in assay [11]; 22.6 µM in assay [12]; 11.6 µM in [13]. Moreover, the concentration for total growth inhibition (TGI) in [14] came out at 14.6 µM; in assay [15] it was 5.66 µM; in assay [16] it was 20 µM.
Take `CC(C)(C)C1CC[C@H](O)[C@H]([C@@H](O)CC2CC(=O)N(c3ccccc3)C(=O)C2)C1` (stereo not given in full): the TGI in assay [1], in [2], in [3], in assay [4], in assay [5] and in [7] was > 100 µM in each case. The TGI in assay [8] was > 100 µM; in assay [9] it was 74.9 µM; in [10], > 100 µM; in assay [11], > 100 µM; in assay [12] it was > 100 µM; in [13], > 100 µM. The TGI in [14], in assay [15] and in [16] was > 100 µM each time.

(Values after PubChem BioAssay (NCI).)
